Reference: patent US8822449B2, “Substituted aminoindanes and analogs thereof, and the pharmaceutical use thereof” (Sanofi, priority 2008, dated 2014)
Where two headings read alike, the source gives them in different places.

Molecular target: T1, sodium-proton exchanger of subtype 3 (NHE3) (Homo sapiens, UniProt P48764)
T1 construct: expressed in transfected cells
T1 sequence (P48764 26-834): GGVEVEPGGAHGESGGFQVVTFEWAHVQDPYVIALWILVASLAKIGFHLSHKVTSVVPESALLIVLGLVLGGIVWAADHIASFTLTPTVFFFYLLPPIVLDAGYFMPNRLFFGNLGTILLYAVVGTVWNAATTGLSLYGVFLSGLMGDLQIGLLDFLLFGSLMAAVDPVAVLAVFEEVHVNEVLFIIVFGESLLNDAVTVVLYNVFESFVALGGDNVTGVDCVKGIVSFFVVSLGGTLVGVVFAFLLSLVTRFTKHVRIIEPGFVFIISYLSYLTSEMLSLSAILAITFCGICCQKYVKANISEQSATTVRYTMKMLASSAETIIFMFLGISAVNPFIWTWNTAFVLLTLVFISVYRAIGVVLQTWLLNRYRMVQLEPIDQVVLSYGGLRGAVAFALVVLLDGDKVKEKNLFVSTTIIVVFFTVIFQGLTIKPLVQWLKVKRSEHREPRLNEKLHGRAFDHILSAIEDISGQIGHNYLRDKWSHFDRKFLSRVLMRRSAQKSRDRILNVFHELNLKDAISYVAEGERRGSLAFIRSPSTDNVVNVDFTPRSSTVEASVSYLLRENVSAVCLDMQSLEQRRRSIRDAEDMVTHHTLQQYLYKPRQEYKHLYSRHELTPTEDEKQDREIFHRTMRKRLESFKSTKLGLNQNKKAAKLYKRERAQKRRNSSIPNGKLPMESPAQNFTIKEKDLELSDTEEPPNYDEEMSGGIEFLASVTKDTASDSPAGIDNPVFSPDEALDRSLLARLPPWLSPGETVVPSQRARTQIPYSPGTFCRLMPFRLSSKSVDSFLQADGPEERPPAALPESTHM
Assay: Recovery of intracellular pH (pHi) after acidification in LAP1 cells stably expressing NHE3 (BCECF fluorescence, FLIPR)
Type: cell-based
Details: LAP1 cells stably expressing NHE3, pH recovery after acidification, range 1 is % inhibition at 10 μM

[1] = read-out: Activity range (inhibitory effect on NHE3)

Row | Structure (SMILES) | IC50 [1] [nM] | inhibition at 10 µM [1] [%] | other results
1 | COCCN(C)[C@H]1Cc2c(Cl)cc(Cl)cc2[C@@H]1Oc1ccc(-n2c(C)nnc2C)cc1 [Example 243, {trans-(1S,2S)-4,6-dichloro-1-[4-(3,5-dimethyl-[1,2,4]triazol-4-yl)phenoxy]indan-2-yl}-(2-methoxyethyl)-methylamine] | < 1000 |  | 
2 | N#Cc1ccc(O[C@H]2c3ccccc3CC[C@@H]2N2CCC[C@H](N)C2)c([N+](=O)[O-])c1 (racemic) [Example 534, 4-[rac-trans-(1,2)-2-((S)-3-aminopiperidin-1-yl)-1,2,3,4-tetrahydronaphthalen-1-yloxy]-3-nitrobenzonitrile] |  | 20 to 50 | 
3 | Cn1ccn(-c2ccc(O[C@H]3c4cc(Cl)cc(Cl)c4C[C@@H]3N3CC[C@@H](O)C3)c(F)c2)c1=O [Example 329, 1-{4-[trans-(1S,2S)-4,6-dichloro-2-((R)-3-hydroxypyrrolidin-1-yl)indan-1-yloxy]-3-fluorophenyl}-3-methyl-1,3-dihydroimidazol-2-one] | < 1000 |  | 
4 | N[C@H]1CCCN([C@H]2CCc3ccccc3[C@@H]2Oc2ccc(Cl)cc2)C1 (racemic) [Example 175, (S)-1-[rac-trans-(1,2)-1-(4-chlorophenoxy)-1,2,3,4-tetrahydronaphthalen-2-yl]piperidin-3-ylamine] |  | 20 to 50 | 
5 | Cc1nncn1-c1ccc(O[C@H]2c3ccccc3C[C@@H]2N2CCCC2)cc1 (racemic) [Example 453, 3-methyl-4-[4-(rac-trans-(1,2)-2-pyrrolidin-1-ylindan-1-yloxy)phenyl]-4H-[1,2,4]triazole] |  |  | IC50 (Activity range (inhibitory effect on NHE3)): < 1000 nM
6 | NC(=O)c1cccc(O[C@@H]2c3ccccc3C[C@H]2N2C[C@H]3CNC[C@H]3C2)c1 (racemic) [Example 410, 3-[rac-trans-(1,2)-2-(hexahydropyrrolo[3,4-c]pyrrol-2-yl)indan-1-yloxy]benzamide] | 1000 to 10000 |  | 
7 | NS(=O)(=O)c1ccc(O[C@H]2c3cccc(Cl)c3C[C@@H]2N2CCCC2)cc1 (racemic) [Example 471, 4-(rac-trans-(1,2)-4-chloro-2-pyrrolidin-1-ylindan-1-yloxy)benzenesulfonamide] |  | 20 to 50 | 
8 | N[C@H]1CCCN([C@H]2CCc3ccccc3[C@@H]2Oc2cnc3ccccc3c2)C1 (racemic) [Example 192, (S)-1-[rac-trans-(1,2)-1-(quinolin-3-yloxy)-1,2,3,4-tetrahydronaphthalen-2-yl]piperidin-3-ylamine] |  | 20 to 50 | 
9 | N[C@@H]1CCCN([C@H]2CCc3ccccc3[C@@H]2Oc2ccc(F)cc2)C1 (racemic) [Example 70, (R)-1-[rac-trans-(1,2)-1-(4-fluorophenoxy)-1,2,3,4-tetrahydronaphthalen-2-yl]piperidin-3-ylamine] |  | 20 to 50 | 
10 | CN(C)[C@@H]1CCCN([C@H]2Cc3c(Cl)cc(Cl)cc3[C@@H]2Oc2ccc(S(C)(=O)=O)cc2)C1 [Example 224, {(R)-1-[trans-(1S,2S)-4,6-dichloro-1-(4-methanesulfonylphenoxy)indan-2-yl]piperidin-3-yl}-dimethylamine] | < 1000 |  | 
11 | Cc1nc2cc(O[C@H]3c4cc(Cl)cc(Cl)c4C[C@@H]3N3CC[C@@H](O)C3)ccc2s1 [Example 96, (R)-1-[trans-(1S,2S)-4,6-dichloro-1-(2-methylbenzothiazol-5-yloxy)indan-2-yl]pyrrolidin-3-ol] |  | 20 to 50 | 
12 | CS(=O)(=O)c1ccc(O[C@H]2c3ccccc3C[C@@H]2N2CCCC2)cc1 (racemic) [Example 273, 1-[rac-trans-(1,2)-1-(4-methanesulfonylphenoxy)indan-2-yl]pyrrolidine] | < 1000 |  | 
13 | CC(=O)Nc1cccc(OC2c3ccccc3CC2N2CC[C@@H](O)C2)c1 (mixture of isomers) [Example 681, N-{3-[rac-trans-(1,2)-2-((R)-3-hydroxypyrrolidin-1-yl)indan-1-yloxy]phenyl}acetamide] | 1000 to 10000 |  | 
14 | C[C@@]1(N2CCCC2)Cc2ccccc2[C@H]1Oc1ccc(S(C)(=O)=O)cc1 (racemic) [Example 252, 1-[1-(4-methanesulfonylphenoxy)-2-methylindan-2-yl]pyrrolidine] |  | 20 to 50 | 
15 | CN(C)Cc1ccc(O[C@H]2c3ccccc3CC[C@@H]2N2CCC[C@H](N)C2)cc1 (racemic) [Example 177, (S)-1-[rac-trans-(1,2)-1-(4-dimethylaminomethylphenoxy)-1,2,3,4-tetrahydronaphthalen-2-yl]piperidin-3-ylamine] |  | 20 to 50 | 
16 | CS(=O)(=O)Nc1ccc(C(=O)O[C@H]2c3ccccc3C[C@@H]2N2CCCC2)c(Cl)c1 [Example 394, 2-chloro-4-methanesulfonylaminobenzoic acid (1S,2S)-2-pyrrolidin-1-ylindan-1-yl ester] | 1000 to 10000 |  | 
17 | N[C@@H]1CCCN([C@@H]2Cc3ccccc3[C@H]2Oc2cccc(CN3CCCCC3)c2)C1 (racemic) [Example 58, (R)-1-[rac-trans-(1,2)-1-(3-piperidin-1-ylmethylphenoxy)indan-2-yl]piperidin-3-ylamine] | 1000 to 10000 |  | 
18 | Cc1cc(=O)cc(C)n1-c1ccc(O[C@H]2c3cc(Cl)cc(Cl)c3C[C@@H]2N2CC[C@@H](O)C2)c(F)c1 [Example 324, 1-{4-[(1S,2S)-4,6-dichloro-2-((R)-3-hydroxypyrrolidin-1-yl)indan-1-yloxy]-3-fluorophenyl}-2,6-dimethyl-1H-pyridin-4-one] | < 1000 |  | 
19 | CN1CC(=O)N(c2ccc(Cl)c(O[C@H]3c4cc(Cl)cc(F)c4C[C@@H]3N3CC[C@@H](O)C3)c2)C1=O [Example 435, 3-{4-chloro-3-[(1S,2S)-6-chloro-4-fluoro-2-((R)-3-hydroxypyrrolidin-1-yl)indan-1-yloxy]phenyl}-1-methylimidazolidine-2,4-dione] | 1000 to 10000 |  | 
20 | CN(C)C(=O)Cc1ccc(O[C@H]2c3ccccc3CC[C@@H]2N2CCC[C@@H](N)C2)cc1 (racemic) [Example 380, 2-{4-[rac-trans-(1,2)-2-((R)-3-aminopiperidin-1-yl)-1,2,3,4-tetrahydronaphthalen-1-yloxy]phenyl}-N,N-dimethylacetamide] |  | 20 to 50 | 
21 | CC(=O)Nc1cccc(O[C@H]2c3cc(F)cc(Cl)c3C[C@@H]2N2CCNCC2)c1 (racemic) [Example 650, N-[3-(rac-trans-(1,2)-4-chloro-6-fluoro-2-piperazin-1-ylindan-1-yloxy)phenyl]acetamide] | < 1000 |  | 
22 | N[C@H]1CCCN([C@@H]2Cc3ccccc3[C@H]2Oc2ccc(Br)cc2-c2cc[nH]n2)C1 (racemic) [Example 204, (S)-1-{rac-trans-(1,2)-1-[4-bromo-2-(1H-pyrazol-3-yl)phenoxy]indan-2-yl}piperidin-3-ylamine] | 1000 to 10000 |  | 
23 | Cc1nnc(C)n1-c1ccc(O[C@H]2c3cc(Cl)ccc3C[C@@H]2N2CCCC2)c(F)c1 [Example 501, 4-[4-(trans-(1S,2S)-6-chloro-2-pyrrolidin-1-ylindan-1-yloxy)-3-fluorophenyl]-3,5-dimethyl-4H-[1,2,4]triazole] | < 1000 |  | 
24 | C[C@@H]1CN([C@H]2Cc3c(Cl)cc(Cl)cc3[C@@H]2Oc2ccc(S(C)(=O)=O)cc2)C[C@H](C)N1 [Example 21, (3R,5S)-1-[trans-(1S,2S)-4,6-dichloro-1-(4-methanesulfonylphenoxy)indan-2-yl]-3,5-dimethylpiperazine] | < 1000 |  | 
25 | CCN(CC)[C@@H]1Cc2ccccc2[C@H]1Oc1ccc2c(c1)C(C)C(=O)N2C (mixture of isomers) [Example 568, 5-(rac-trans-(1,2)-2-diethylaminoindan-1-yloxy)-1,3-dimethyl-1,3-dihydroindol-2-one] | 1000 to 10000 |  | 
